{"source": "paper PMC7345083", "about": "“Vancomycin-Lipopeptide Conjugates with High Antimicrobial Activity on Vancomycin-Resistant Enterococci” (Pharmaceuticals, 2020)", "key": {"[1]": {"tested_on": "Enterococcus faecium UL602570 (vanA, clinical isolate)", "format": "cell-based", "settings": "E. faecium UL602570, vanA clinical isolate", "procedure": "(§1) The minimum inhibitory concentration (MIC) was determined by microdilution following the EUCAST and CLSI guidelines via the broth microdilution assay on a 96-well plate. Substances were dissolved in saline solution (0.9%) at a concentration equimolar to 1.28 mg/mL vancomycin. With an increasing hydrophobicity, some substances had to be pre-dissolved in DMSO. The final concentration of DMSO remained below 1.5% and was compared to the DMSO control (no antimicrobial effect was observed up to the highest concentration tested (10%)). All substances were serially diluted on the 96-well plate using Mueller-Hinton-Broth II (cation adjusted). Vancomycin was always used as a control. For bacterial loading, an overnight culture of the referring strain was taken and adjusted to a turbidity corresponding to 10^8 cfu/mL. The bacterial suspension was further diluted to load a bacterial number of 10^6 cfu/mL on the 96-well plate and incubate it for 18 h at 35 ± 1 °C, as described before. MIC was defined as the lowest concentration without visible growth."}, "[2]": {"tested_on": "E. faecium ATCC 51559 (vanA)", "format": "cell-based, Enterococcus faecium", "settings": "E. faecium ATCC 51559, vanA", "procedure": "as §1"}, "[3]": {"tested_on": "human blood (red blood cells)", "assay": "Hemolysis (hemoglobin release assay)", "format": "cell-based", "settings": "concentrations above 100 µM, range applied 1-900 µM, 2 h, 37 °C", "procedure": "Hemolytic activity was determined by the hemoglobin release assay on a 96-well plate. Fresh venal blood was collected from volunteers in anticoagulant tubes. The blood samples were centrifuged for 3 min at 2500 rpm, and afterwards, the supernatant was discarded and PBS (pH 7.4) was added. The tubes were gently inverted, and the previous step was repeated two times. Substances were serial two-fold diluted in PBS (pH 7.4) on a 96-well V-bottom plate. Triton X-100 (1% in PBS) was used as a positive control (Xpos). […] In total, 50 µL of the purified blood samples was added to all columns. After 2 h incubation at 37 °C, the 96-well plate was centrifuged at 4000 rpm for 2 min. The supernatant was transferred to a new flat-bottom 96-well plate and absorption was measured at 554 nm. The percentage of hemolysis was calculated according to the following equation:% hemolysis = 100 × (Xsample − Xblank)/(Xpos − Xblank).(1)"}, "[4]": {"tested_on": "human blood (red blood cells)", "settings": "cited from earlier work", "procedure": "In order to investigate the hemolytic behavior, human blood from healthy volunteers was taken and exposed to different concentrations of selected conjugates. As a control, unmodified vancomycin, known to have non-hemolytic properties up to 12 mM [40], was used (Figure 4)."}, "[5]": {"settings": "comparison statement of the abstract, no reference given; cited from earlier work", "source_text": "Multidrug-resistant bacteria represent one of the most important health care problems worldwide. While there are numerous drugs available for standard therapy, there are only a few compounds capable of serving as a last resort for severe infections. Therefore, approaches to control multidrug-resistant bacteria must be implemented. Here, a strategy of reactivating the established glycopeptide antibiotic vancomycin by structural modification with polycationic peptides and subsequent fatty acid conjugation to overcome the resistance of multidrug-resistant bacteria was followed. This study especia ..."}}}
{"smiles": "CN[C@H](CC(C)C)C(=O)N[C@H]1C(=O)N[C@@H](CC(N)=O)C(=O)N[C@H]2C(=O)N[C@H]3C(=O)N[C@H](C(=O)N[C@H](C(=O)O)c4cc(O)cc(O)c4-c4cc3ccc4O)[C@H](O)c3ccc(c(Cl)c3)Oc3cc2cc(c3O[C@@H]2O[C@H](CO)[C@@H](O)[C@H](O)[C@H]2O[C@H]2C[C@](C)(N)[C@H](O)[C@H](C)O2)Oc2ccc(cc2Cl)[C@H]1O", "note": "[vancomycin]", "values": [{"measurement": "resistance against vancomycin up to (concentration)", "setting": "[1]", "value": "up to 640 mg/L"}, {"measurement": "resistant to up to (vancomycin concentration)", "setting": "[2]", "value": "up to 1024 mg/L"}, {"measurement": "hemolytic effect at higher concentrations", "setting": "[3]", "value": "could neither be observed"}, {"measurement": "non-hemolytic properties up to (concentration)", "setting": "[4]", "value": "up to 12 mM"}, {"measurement": "excretion route", "setting": "[5]", "value": "rapidly excreted by the kidneys"}]}
